According to PubChem BioAssay (NCI):
Structures can show the parent of a compound that is named as a salt.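 1) Cells in 96-well plates. 2) Compound, 48 h, 5 concentrations. 3) Linear interpolation between surrounding doses. 4) Unreached endpoint = highest concentration. TGI denotes the concentration required for complete inhibition of growth.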 Where a SMILES comes first, the peptide text is derived from it. The star is where a group is joined. Tfa = O=C(C(F)(F)F)*

Key:
Test in all cases: NCI tumour cell line growth inhibition, 48 h
SN12C renal = test system: SN12C renal
OVCAR-3 ovarian = test system: OVCAR-3 ovarian
SNB-75 CNS = test system: SNB-75 CNS
IGROV1 ovarian = test system: IGROV1 ovarian
SF-539 CNS = test system: SF-539 CNS
DU-145 prostate = test system: DU-145 prostate
NCI/ADR-RES ovarian = test system: NCI/ADR-RES ovarian
NCI-H522 lung = test system: NCI-H522 lung
RXF 393 renal = test system: RXF 393 renal
HS 578T breast = test system: HS 578T breast
TK-10 renal = test system: TK-10 renal
SK-MEL-5 melanoma = test system: SK-MEL-5 melanoma
UACC-62 melanoma = test system: UACC-62 melanoma
T-47D breast = test system: T-47D breast
HCT-116 colon = test system: HCT-116 colon
HL-60(TB) leukemia = test system: HL-60(TB) leukemia

Row | SMILES | TGI (SN12C renal) [µM] | TGI (OVCAR-3 ovarian) [µM] | TGI (SNB-75 CNS) [µM] | TGI (IGROV1 ovarian) [µM] | TGI (SF-539 CNS) [µM] | TGI (DU-145 prostate) [µM] | TGI (NCI/ADR-RES ovarian) [µM] | TGI (NCI-H522 lung) [µM] | TGI (RXF 393 renal) [µM] | TGI (HS 578T breast) [µM] | TGI (TK-10 renal) [µM] | TGI (SK-MEL-5 melanoma) [µM] | TGI (UACC-62 melanoma) [µM] | TGI (T-47D breast) [µM] | TGI (HCT-116 colon) [µM] | TGI (HL-60(TB) leukemia) [µM]
1 | O=C(O)CC(NC(=O)C(F)(F)F)C(=O)NC(Cc1ccc(O)cc1)C(=O)O (stereo not drawn) (Tfa-Asp-Tyr-OH; configuration not given here) | > 50 | > 50 | > 50 | > 50 | > 50 | > 50 | > 50 | > 50 | > 50 | > 50 | > 50 | > 50 | > 50 | > 50 |  | 
2 | O=c1cc(NCCCCCO)[nH]c(=O)[nH]1 | > 100 | > 100 | > 100 | > 100 | > 100 |  | > 100 | > 100 | > 100 | > 100 | > 100 | > 100 | > 100 | > 100 | > 100 | > 100
3 | Cc1ccc(S(=O)(=O)c2c(N)c3nc4ccccc4n3c3nc4ccccc4nc23)cc1 | > 100 | > 100 | > 100 | > 100 | > 100 |  |  | > 100 |  |  |  | > 100 | > 100 |  | > 100 | 
4 | Nc1sc2c(c1C(=O)c1ccc(Cl)c(Cl)c1)CCCC2 | > 100 | > 100 | 86.4 |  | > 100 | > 100 |  | 50.2 | > 100 | > 100 | > 100 |  | > 100 | > 100 | > 100 | 65.3
5 | C=C(CN(C)C)C(=O)c1ccccc1C | > 78.1 | > 58.7 | > 100 | > 100 | > 60.8 | > 100 |  | 12.3 | 17.6 |  | > 100 | > 100 | > 62.3 |  | > 57.1 | 15.9
6 | Cc1ccc2c3c1O[C@H]1c4[nH]c5ccccc5c4C[C@@]4(O)[C@@H](C2)N(C)CC[C@]314 | 39.4 |  |  | 34.9 | 31.9 | 39 | 35.8 | 36 | 22.7 | 21.5 |  | 28.2 | 31.1 |  | 31 | 30.7
7 | COC(=O)c1c2c(cc3c1CC1(Cc4cc5c(c(C=O)c4C1)CCCC5)C3)CCCC2 (configuration not stated) | > 100 | > 100 |  | > 100 | > 100 |  | > 100 | > 100 | > 100 | > 100 | > 100 | > 100 | > 100 | > 100 | 47.3 | 59.9
8 | CN(C)CCOc1cccc2c1C(=O)c1ccccc1C2=O | 37.3 | 64 | 28.8 | 43.4 | 22.6 |  |  | 20.5 | 27.3 |  | 66.6 | 25.3 | 29.8 |  | 17.2 | 29.4
9 | CCc1ccc(N=Cc2cc(OC)c(OC)c(OC)c2)cc1 | > 100 | > 100 | > 100 | > 100 | > 100 |  |  | > 100 | > 100 |  | > 100 | > 100 | > 100 |  | > 100 | > 100
10 | OCC1OC(n2nc(-c3ccccc3)nc2-c2cnccn2)C(O)C(O)C1O (configuration not stated) | > 100 | > 100 | > 100 | > 100 | > 100 | > 100 | > 100 | > 100 |  |  |  | > 100 | > 100 | > 100 | > 100 | > 100
11 | CC1(C)CCC[C@@]2(C)C1CCC1(C)C(CCc3ccoc3)/C(=C/OS(=O)(=O)O)CCC12 (some centres not stated) (tested in a mixture with another compound) | > 100 | > 100 | > 100 | > 100 | > 100 |  |  |  | > 100 |  | > 100 | > 100 | > 100 |  | 38.9 | > 100
12 | CCOC(=O)c1cnn2c1ncc1c(=O)n(NC(N)=O)ccc12 | > 100 | > 100 | > 100 | > 100 | > 100 | > 100 |  | > 100 |  | > 100 | > 100 | > 100 | > 100 | > 100 | > 100 | > 100
13 | O=C(/C=C/c1ccc(OCCCOc2ccc(/C=C/C(=O)c3ccccc3)cc2)cc1)c1ccccc1 | > 100 | > 100 | > 100 | > 100 | > 100 |  |  |  | > 100 |  | > 100 | > 100 | > 100 |  | > 100 | > 100
14 | CC(C)(C)c1cc(CC2C(=O)c3ccccc3C2=O)cc(C(C)(C)C)c1O | 35.9 | 9.53 |  | 26.4 | 16.7 | 14.7 | > 100 | 14.4 |  | 39.8 | 23.7 | 11.1 | 17.7 |  | 14.1 | 6.69
15 | Cc1cc(N(CCC#N)CCC#N)ccc1/C=C1N=C(/C=C\c2ccccc2)OC\1=O | > 100 | > 100 | > 100 | > 100 | > 100 |  |  | > 100 | > 100 |  | > 100 | > 100 | > 100 |  | > 100 | > 100
16 | O=P1(O)C=CC2(CCCC2)O1 | > 100 | > 100 | > 100 | > 100 | > 100 | > 100 | > 100 | > 100 |  |  | > 100 | > 100 | > 100 | > 100 | > 100 | > 100
17 | Cc1cccc(C(C)C)c1NC(=O)C(=O)CC(=O)c1sc(Nc2ccccc2Cl)nc1C | > 100 | > 100 | > 100 | > 100 | 24.7 | > 100 |  | > 100 | > 100 | > 100 | > 100 | 87.9 | > 100 | > 100 | > 100 | 41
